Data on three compounds can be found in patent US20230233690A1, “ANDROGEN RECEPTOR PROTEIN DEGRADERS” (THE REGENTS OF THE UNIVERSITY OF MICHIGAN, priority 2020, published 2023).

Data set [1] in a line: PK parameters in male mice (Table 9). Type of data set: in vivo. Conditions: for F: PO 3 mg/kg vs IV 1 mg/kg; for Vd: read-out: Vss. How it is done: The pharmacokinetics (PK) of representative Compounds of the Disclosure were evaluated in mice or rats to provide an assessment of their oral bioavaibility. All animal experiments were performed under the guidelines of the University of Michigan Committee for Use and Care of Animals and using an approved animal protocol.

A further data set concerns the target T1, AR protein (Homo sapiens, UniProt P10275).
T1 construct: endogenous in cells; host or cells: VCaP
T1 sequence (P10275 1-920): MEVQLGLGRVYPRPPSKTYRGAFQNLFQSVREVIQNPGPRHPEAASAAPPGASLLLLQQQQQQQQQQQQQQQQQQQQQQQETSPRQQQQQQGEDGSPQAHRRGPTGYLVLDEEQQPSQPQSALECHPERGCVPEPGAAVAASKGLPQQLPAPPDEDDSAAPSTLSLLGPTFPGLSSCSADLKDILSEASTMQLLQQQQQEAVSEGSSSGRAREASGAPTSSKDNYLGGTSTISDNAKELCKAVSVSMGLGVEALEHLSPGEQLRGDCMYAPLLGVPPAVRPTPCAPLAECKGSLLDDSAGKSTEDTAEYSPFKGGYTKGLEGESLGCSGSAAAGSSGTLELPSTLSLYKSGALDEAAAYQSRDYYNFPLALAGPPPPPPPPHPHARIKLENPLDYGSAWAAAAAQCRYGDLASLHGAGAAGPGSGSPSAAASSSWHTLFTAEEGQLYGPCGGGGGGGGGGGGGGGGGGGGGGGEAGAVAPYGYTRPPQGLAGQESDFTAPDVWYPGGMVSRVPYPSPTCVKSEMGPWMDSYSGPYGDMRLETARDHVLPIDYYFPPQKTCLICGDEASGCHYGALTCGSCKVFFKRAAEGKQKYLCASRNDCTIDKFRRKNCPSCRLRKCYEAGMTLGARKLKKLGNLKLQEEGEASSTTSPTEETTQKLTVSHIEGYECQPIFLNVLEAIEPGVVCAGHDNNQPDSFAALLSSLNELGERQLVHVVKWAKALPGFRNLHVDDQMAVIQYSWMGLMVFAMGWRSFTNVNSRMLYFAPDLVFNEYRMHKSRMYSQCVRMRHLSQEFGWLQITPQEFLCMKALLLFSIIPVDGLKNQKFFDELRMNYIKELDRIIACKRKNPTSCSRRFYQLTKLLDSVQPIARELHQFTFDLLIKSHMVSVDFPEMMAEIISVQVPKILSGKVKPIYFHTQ
In words: Western blotting of AR protein degradation in VCaP cells. Type of data set: cell-based. How it is done: The treated cells were lysed with RIPA buffer. […] GAPDH was used as a loading control.
Bands were quantified with ImageJ software. The relative numbers of each band obtained from normalization with its corresponding GAPDH level were compared with Prism 8 software. The DC50 values were produced from Prism 8, and the DC90 values were calculated with an equation=Bottom+(Top−Bottom)/(1+10^((Log EC50−X)*HillSlope) based on DC50 and Hillslope values.

Where [2] appears, read: ICR, mouse, in vivo, IV 1 mg/kg.

Structures are written as SMILES. Like-named read-outs stand apart in the source and are kept apart here.

For `CN(c1ccc(C#N)c(Cl)c1)[C@H]1CC[C@H](NC(=O)c2ccc(N3CCC(CN4CCN(c5ccc6c(c5)C(=O)N(C5CCC(=O)NC5=O)C6=O)CC4)CC3)cc2)CC1` (stereo partly drawn) [compound 234, N-((1r,4r)-4-((3-chloro-4-cyanophenyl)(methyl)amino)cyclohexyl)-4-(4-((4-(2-(2,6-dioxopiperidin-3-yl)-1,3-dioxoisoindolin-5-yl)piperazin-1-yl)methyl)piperidin-1-yl)benzamide], in data set [1] (IV 1 mg/kg), the exposure AUC(0-t) was 0.693 µg·h/mL, the Cl came out at 1.1 L/h/kg, the T1/2 stood at 12.5 h and the Vss came out at 17.6 L/kg. For the same compound, in data set [1] (PO 3 mg/kg), the area under the curve AUC(0-t) stood at 0.7375 µg·h/mL, the Cmax came out at 0.045 µg/mL, the T1/2 is on record as 27.0 h and the time of peak concentration (Tmax) turned out to be 6.0 h. This compound yielded a F in data set [1] of 35%. Besides, on AR protein (0.001 μM), the “% AR protein degradation in VCaP Cells” value was determined as 55%. Further, the “% AR protein degradation in VCaP Cells” value on AR protein (0.01 μM) is on record as 91%. Further, at AR protein (0.1 μM), the “% AR protein degradation in VCaP Cells” value worked out at 93%. The “% AR protein degradation in VCaP Cells” value on AR protein (1 μM) was determined as 90%.

As to `N#Cc1ccc(O[C@H]2CC[C@H](NC(=O)c3ccc(N4CCC(N5CCN(c6ccc7c(c6)C(=O)N(C6CCC(=O)NC6=O)C7=O)CC5)CC4)cc3)CC2)cc1Cl` (stereo partly drawn) [compound 223, N-((1r,4r)-4-(3-chloro-4-cyanophenoxy)cyclohexyl)-4-(4-(4-(2-(2,6-dioxopiperidin-3-yl)-1,3-dioxoisoindolin-5-yl)piperazin-1-yl)piperidin-1-yl)benzamide], in data set [1] (setting [2]), the clearance is 0.39 L/h/kg and the Vd worked out at 3.04 L/kg. In data set [1] (IV 1 mg/kg), the “AUC(0-t)” value worked out at 2.425 µg·h/mL and the T1/2 was 6.1 h. For the same compound, in data set [1] (PO 3 mg/kg), the “AUC(0-t)” value turned out to be 2.154 µg·h/mL, the Cmax came to 0.207 µg/mL, the T1/2 turned out to be 5.6 h and the Tmax stood at 4.0 h. Besides, in data set [1], the F is 30%. For the same compound, the “% AR protein degradation in VCaP Cells” value at AR protein (0.001 μM) is 73%. For the same compound, the “% AR protein degradation in VCaP Cells” value at AR protein (0.01 μM) is 91%. Also, the “% AR protein degradation in VCaP Cells” value at AR protein (0.1 μM) was 85%. For the same compound, on AR protein (1 μM), the “% AR protein degradation in VCaP Cells” value was 75%.

On to `CN(c1ccc(C#N)c(Cl)c1)[C@H]1CC[C@H](NC(=O)c2ccc(N3CCN(CC4CCN(c5ccc6c(c5)C(=O)N(C5CCC(=O)NC5=O)C6=O)CC4)CC3)cc2)CC1` (stereo partly drawn) [compound 233, N-((1r,4r)-4-((3-chloro-4-cyanophenyl)(methyl)amino)cyclohexyl)-4-(4-((1-(2-(2,6-dioxopiperidin-3-yl)-1,3-dioxoisoindolin-5-yl)piperidin-4-yl)methyl)piperazin-1-yl)benzamide], for which, in data set [1] (setting [2]), the clearance was 0.51 L/h/kg. Moreover, the half-life in data set [1] (setting [2]) was 26 h; in data set [1] (ICR, mouse, in vivo, PO 3 mg/kg), 41 h. Moreover, the exposure AUC(0-t) in data set [1] (ICR, mouse, in vivo, IV 1 mg/kg, read-out: AUC(0-t)) was 1.04 µg·h/mL; in data set [1] (ICR, mouse, in vivo, PO 3 mg/kg, read-out: AUC(0-t)) it was 0.94 µg·h/mL. The Vd in data set [1] (setting [2]) was 16.8 L/kg. Besides, the highest concentration (Cmax) in data set [1] (ICR, mouse, in vivo, PO 3 mg/kg, read-out: Cmax) was determined as 0.06 µg/mL. The Tmax in data set [1] (ICR, mouse, in vivo, PO 3 mg/kg, read-out: Tmax) was found to be 4 h. Also, in data set [1], the F is reported as 30%. Further, the “% AR protein degradation in VCaP Cells” value at AR protein (0.001 μM) was 49%; at AR protein (0.01 μM), 78%; at AR protein (0.1 μM), 87%; at AR protein (1 μM), 76%.
